Laboratory results published in PMC10064984, “Anti-cyclooxygenase, anti-glycation, and anti-skin aging effect of Dendrobium officinale flowers’ aqueous extract and its phytochemical validation in aging” (Frontiers in Immunology, 2023).
Where “and” joins values, the source holds several entries; their conditions need not be identical. Identical values can stand only once. Like-named read-outs stand apart in the source and are kept apart here.

What was measured:
COX-2 = biological target: T1, COX-2 (Homo sapiens, UniProt P35354); experiment: Anti-COX-2 assay (COX-2 Inhibitor Screening Kit); format: biochemical
T1 construct: purchased Beyotime S0168
T1 sequence (P35354 18-604): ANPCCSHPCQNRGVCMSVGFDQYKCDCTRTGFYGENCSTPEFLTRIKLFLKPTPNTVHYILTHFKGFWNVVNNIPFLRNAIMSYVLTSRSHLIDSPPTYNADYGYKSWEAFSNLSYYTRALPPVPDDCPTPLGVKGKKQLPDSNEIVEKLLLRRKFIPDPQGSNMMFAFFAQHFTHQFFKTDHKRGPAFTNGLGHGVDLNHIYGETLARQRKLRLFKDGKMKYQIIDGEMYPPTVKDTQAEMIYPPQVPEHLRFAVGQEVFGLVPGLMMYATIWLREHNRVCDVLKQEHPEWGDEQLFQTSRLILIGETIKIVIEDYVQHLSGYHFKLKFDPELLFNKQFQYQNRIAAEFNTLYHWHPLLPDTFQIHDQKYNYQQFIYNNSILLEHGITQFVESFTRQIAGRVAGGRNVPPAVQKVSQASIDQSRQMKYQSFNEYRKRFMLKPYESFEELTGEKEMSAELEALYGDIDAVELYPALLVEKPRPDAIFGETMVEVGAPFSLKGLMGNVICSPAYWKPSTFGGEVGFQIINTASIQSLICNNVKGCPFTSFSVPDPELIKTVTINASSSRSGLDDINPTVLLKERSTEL

[1] = Fluorescent AGEs formation in a BSA-fructose/glucose system; format: biochemical; conditions: for IC50: mean ± SD, n = 3, read-out: BSA-glycation IC50; for inhibition of fluorescent AGEs formation (BSA-抗糖化), single replicate: individual replicate; for inhibition of fluorescent AGEs formation (BSA-抗糖化), 平均 (mean): mean of 3 replicates
How it was run: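 Fluorescent AGE inhibition was measured in triplicate, correcting sample and control fluorescence for BSA-free blanks. Glycation used BSA incubated with D-fructose and D-glucose, with samples dissolved in DMSO:water (1:4).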

[2] = FRAP total antioxidant capacity; format: biochemical; conditions: lower part of sheet (compound series);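 note: colourimetric FRAP kit assay read as absorbance in 96-well plates, values as mM FeSO4 via standard curve, EC1 being sample concentration matching 1.0 mmol/L FeSO4, Trolox positive control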
[3] = ABTS·+ decolourisation capacity; format: biochemical; conditions: for ABTS scavenging rate: 0.5mM series, replicate wells, listed as T15; for IC50: mean ± SD, n = 3
How it was run: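 IC50 values were derived graphically from dose-inhibition curves, with % inhibition calculated versus a buffer-only (0.2 M phosphate, pH 7.4) control. Each sample (200 μl) reacted for 10 min with 100 μl ABTS·+ reagent pre-set to A729 0.8 ± 0.05, then absorbance at 729 nm was measured in triplicate.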

[4] = Online UPLC-PDA-MS-ABTS·+ scavenging (postcolumn derivatisation); conditions: within DOF extract
Experimental: Online identification of antioxidant components of DOF extract was performed using a UPLC system (Milford, MA, USA) consisting of a Waters photodiode array detector and a Waters postcolumn derivatisation system supplying fresh ABTS solution (UPLC-PDA-QDa-ABTS). […] The detection wavelengths were set at 280 and 734 nm, and the injection volume of the sample was 10 μl.
To detect radical scavengers, the UPLC system was coupled with a Waters pump, which supplied freshly prepared ABTS·+ solution into a reaction coil (15 m, 0.25 mm ID) with a flow rate of 0.2 ml/min at 37°C. Negative peaks were recorded based on a decrease of absorbance at 729 nm after the reaction of individual compounds with the ABTS·+ radical. For preliminary identification of compounds, a Waters Acquity QDa mass detector in negative ionisation mode was connected in series to PDA with the following parameters: electrospray ion source; cone voltage, 15 V; atomiser, N2; and scanning range, 100–800 m/z.

DPPH· scavenging = format: biochemical; conditions: mean ± SD, n = 3

Question: Which results are given for O=c1c(O[C@@H]2O[C@H](CO)[C@@H](O)[C@H](O)[C@H]2O)c(-c2ccc(O)c(O)c2)oc2cc(O)cc(O)c12 [compound 25, Isoquercitrin]?
Answer: COX-2 inhibition (in words) (COX-2): great COX-2 inhibition; COX-2 inhibition (COX-2; 3.125 μM, single replicates, listed as T15, 3.125 µM): -5.79% and 0.13% and 6.24%; COX-2 inhibition (COX-2; 6.25 μM, single replicates, listed as T15, 6.25 µM): 11.89% and 39.51% and 35.72%; inhibition at 12.5 µM (COX-2; 12.5 μM, single replicates): 41.8%; COX-2 inhibition (COX-2; 12.5 μM, single replicates, listed as T15, 12.5 µM): 53.29% and 49.38%; inhibition at 25 µM (COX-2; 25 μM, single replicates): 67.1%; COX-2 inhibition (COX-2; 25 μM, single replicates, listed as T15, 25 µM): 72.74% and 74.72%; inhibition at 50 µM (COX-2; 50 μM, single replicates): 78.9%; COX-2 inhibition (COX-2; 50 μM, single replicates, listed as T15, 50 µM): 78.06% and 79.70%; inhibition at 100 µM (COX-2; 100 μM, single replicates): 77.2%; COX-2 inhibition (COX-2; 100 μM, single replicates, listed as T15, 100 µM): 81.94% and 80.44%; inhibition at 200 µM (COX-2; 200 μM, single replicates): 79.2%; COX-2 inhibition (COX-2; 200 μM, single replicates, listed as T15, 200 µM): 82.29% and 79.96%; IC50 [1]: 213 ± 10.4 µM; FRAP EC1 [2]: 520.2 ± 17.9 µM; ABTS scavenging rate ([3]; concentration 7.8125 (unit not given)): 37.41% and 37.49% and 37.14%; ABTS scavenging rate ([3]; concentration 15.625 (unit not given)): 63.25% and 62.99% and 62.91%; ABTS scavenging rate ([3]; concentration 31.25 (unit not given)): 95.51% and 95.22% and 96.00%; ABTS scavenging rate ([3]; concentration 62.5 (unit not given)): 99.23% and 99.50% and 99.53%; ABTS scavenging rate ([3]; concentration 125 (unit not given)): 99.63% and 99.58% and 99.53%; ABTS scavenging rate ([3]; concentration 250 (unit not given)): 99.04% and 98.96% and 98.89%; ABTS scavenging rate ([3]; concentration 500 (unit not given)): 99.05% (2×) and 99.02%; IC50 [3]: 10.67 ± 0.03 µM; online ABTS radical scavenging (size of negative peaks at 734 nm) [4]: strongest ABTS radical scavengers

Question: Which IC50 (DPPH· scavenging) does the source give for O=C(O)CC(=O)OCC1OC(Oc2c(-c3ccc(O)c(O)c3)oc3cc(O)cc(O)c3c2=O)C(O)C(O)C1O (stereo not drawn) [compound 27, Quercetin 3-O-(6″-malonyl-glucoside)] here?
Answer: 24.7 ± 0.96 µM

Question: And the “COX-2 inhibition (in words)” value (COX-2)?
Answer: great COX-2 inhibition

Question: What about the inhibition at 3.125 µM (COX-2; 3.125 μM, single replicates) of the same compound?
Answer: 24.6%

Question: And the COX-2 inhibition (COX-2; 3.125 μM, single replicates, listed as T11, 3.125 µM)?
Answer: 20.59% and 27.90%

Question: What about the COX-2 inhibition (COX-2; 6.25 μM, single replicates, listed as T11, 6.25 µM) of the same compound?
Answer: 14.74% and 29.06% and 32.72%

Question: And the inhibition at 12.5 µM (COX-2; 12.5 μM, single replicates)?
Answer: 58.4%

Question: What about the COX-2 inhibition (COX-2; 12.5 μM, single replicates, listed as T11, 12.5 µM) of the same compound?
Answer: 54.43% and 66.15%

Question: And the inhibition at 25 µM (COX-2; 25 μM, single replicates)?
Answer: 71.8%

Question: What about the COX-2 inhibition (COX-2; 25 μM, single replicates, listed as T11, 25 µM) of the same compound?
Answer: 72.43% and 76.32%

Question: What about the inhibition at 50 µM (COX-2; 50 μM, single replicates) of the same compound?
Answer: 73.1%

Question: What about the COX-2 inhibition (COX-2; 50 μM, single replicates, listed as T11, 50 µM) of the same compound?
Answer: 74.00% and 78.80%

Question: What about the inhibition at 100 µM (COX-2; 100 μM, single replicates) of the same compound?
Answer: 77.6%

Question: What about the COX-2 inhibition (COX-2; 100 μM, single replicates, listed as T11, 100 µM) of the same compound?
Answer: 75.00% and 79.64%

Question: And the inhibition at 200 µM (COX-2; 200 μM, single replicates)?
Answer: 75.5%

Question: What about the COX-2 inhibition (COX-2; 200 μM, single replicates, listed as T11, 200 µM) of the same compound?
Answer: 78.98% and 87.56%

Question: And the IC50 (COX-2; mean ± SD, n = 3, nd, not detected, read-out: COX-2 IC50)?
Answer: 12.5 ± 2.9 µM

Question: And the IC50 (COX-2; supplement sheet COX, read-out: COX-2 IC50, single replicate)?
Answer: 13.5 µM and 9.23 µM and 14.8 µM

Question: What about the “inhibition of fluorescent AGEs formation (BSA-抗糖化), single replicate” value (shortened to “inhibition … single replicate”) ([1]; 15.625 µM, listed as T11, 15.625 µM) of the same compound?
Answer: 10.51% and 15.35% and 23.11%

Question: And the “inhibition of fluorescent AGEs formation (BSA-抗糖化), 平均 (mean)” value (“inhibition … (mean)” for short) ([1]; 15.625 µM)?
Answer: 16.32%

Question: What about the “inhibition … single replicate” value ([1]; 31.25 µM, listed as T11, 31.25 µM) of the same compound?
Answer: 5.08% and 5.86% and 10.67%

Question: And the “inhibition … (mean)” value ([1]; 31.25 µM)?
Answer: 7.20%

Question: And the “inhibition … single replicate” value ([1]; 62.5 µM, listed as T11, 62.5 µM)?
Answer: 17.13% and 15.89% and 16.80%

Question: What about the “inhibition … (mean)” value ([1]; 62.5 µM) of the same compound?
Answer: 16.61%

Question: What about the “inhibition … single replicate” value ([1]; 125 µM, listed as T11, 125 µM) of the same compound?
Answer: 26.98% and 29.78% and 30.07%

Question: What about the “inhibition … (mean)” value ([1]; 125 µM) of the same compound?
Answer: 28.94%

Question: And the “inhibition … single replicate” value ([1]; 250 µM, listed as T11, 250 µM)?
Answer: 45.50% and 47.09% and 47.76%

Question: And the “inhibition … (mean)” value ([1]; 250 µM)?
Answer: 46.78%

Question: What about the “inhibition … single replicate” value ([1]; 500 µM, listed as T11, 500 µM) of the same compound?
Answer: 61.62% and 62.32% and 63.30%

Question: What about the “inhibition … (mean)” value ([1]; 500 µM) of the same compound?
Answer: 62.41%

Question: What about the “inhibition … single replicate” value ([1]; 1000 µM, listed as T11, 1000 µM) of the same compound?
Answer: 77.56% and 77.94% and 77.85%

Question: What about the “inhibition … (mean)” value ([1]; 1000 µM) of the same compound?
Answer: 77.78%

Question: And the “inhibition … single replicate” value ([1]; 2000 µM, listed as T11, 2000 µM)?
Answer: 88.53% and 88.63% and 88.83%

Question: And the “inhibition … (mean)” value ([1]; 2000 µM)?
Answer: 88.66%

Question: And the “inhibition … single replicate” value ([1]; 4000 µM (series head 'T9 4000µM', 2-fold dilutions), listed as T11)?
Answer: 94.35% and 94.74% and 94.79%

Question: What about the “inhibition … (mean)” value ([1]; 4000 µM) of the same compound?
Answer: 94.62%

Question: What about the IC50 [1] of the same compound?
Answer: 288 ± 17.9 µM

Question: And the “FRAP EC1” value [2]?
Answer: 826.7 ± 98.5 µM

Question: What about the IC50 [3] of the same compound?
Answer: 28.4 ± 0.47 µM

Question: And the “online ABTS radical scavenging (size of negative peaks at 734 nm)” value [4]?
Answer: strongest ABTS radical scavengers
